Laboratory results reported in patent US4245106A, “Process for the preparation of 1-alkyl-3-aryl-4-pyrazolecarboxylates” (Monsanto Company, priority 1979, dated 1981).

Assays:
Format in all cases: in vivo
Barnyard grass [1] = assay: pre-emergent herbicidal activity test; settings: *11.2 Kg/Ha; observed approximately 14 days after treatment
Method: (§1) Table II summarizes results of tests conducted to determine the pre-emergent as well as the post-emergent herbicidal activity of the compounds. The pre-emergent test was conducted as follows:
(§2) A good grade of top soil was placed in aluminum pans and compacted to a depth of three-eighths to one-half inch from the top of the pan. On the top of the soil was placed a predetermined number of seeds or vegetative propagules of various plant species. The soil required to level fill the pans after seeding or adding vegetative propagules was weighed into a pan. A known amount of the active ingredient applied in a solvent or as a wettable powder and the soil were thoroughly mixed, and used as a cover layer for prepared pans. After treatment the pans were moved into a greenhouse bench where they were watered from below as needed to give adequate moisture for germination and growth.
(§3) A herbicial rating code was used to signify the extent of phytotoxicity of each species. The rating are defined as follows: […]

Bromus tectorum [2] = assay: pre-emergent herbicidal activity test; settings: *11.2 Kg/Ha; observed approximately 14 days after treatment
Method: as §1, §2, §3

Canada Thistle [3] = assay: pre-emergent herbicidal activity test; settings: *11.2 Kg/Ha; observed approximately 14 days after treatment
Method: as §1, §2, §3

Cocklebur [4] = assay: pre-emergent herbicidal activity test; settings: *11.2 Kg/Ha; observed approximately 14 days after treatment
Method: as §1, §2, §3

Johnsongrass [5] = assay: pre-emergent herbicidal activity test; settings: *11.2 Kg/Ha; observed approximately 14 days after treatment
Method: as §1, §2, §3

Lambsquarter [6] = assay: pre-emergent herbicidal activity test; settings: *11.2 Kg/Ha; observed approximately 14 days after treatment
Method: as §1, §2, §3

Morningglory [7] = assay: pre-emergent herbicidal activity test; settings: *11.2 Kg/Ha; observed approximately 14 days after treatment
Method: as §1, §2, §3

Nutsedge [8] = assay: pre-emergent herbicidal activity test; settings: *11.2 Kg/Ha; observed approximately 14 days after treatment
Method: as §1, §2, §3

Quackgrass [9] = assay: pre-emergent herbicidal activity test; settings: *11.2 Kg/Ha; observed approximately 14 days after treatment
Method: as §1, §2, §3

Smartweed [10] = assay: pre-emergent herbicidal activity test; settings: *11.2 Kg/Ha; observed approximately 14 days after treatment
Method: as §1, §2, §3

Velvetleaf [11] = assay: pre-emergent herbicidal activity test; settings: *11.2 Kg/Ha; observed approximately 14 days after treatment
Method: as §1, §2, §3

Barnyard grass [12] = assay: post-emergent herbicidal activity test; settings: 11.2 Kg/Ha; approximately four weeks later
Method: (§4) The post-emergent tests were conducted as follows. The active ingredients are applied in spray form to two or three-week old specimens of various plant species. The spray, a solution or wettable powder suspension containing the appropriate rate of active ingredient to give the desired test rate and a surfactant, is applied to the plants. The treated plants are placed in a greenhouse and unless otherwise noted approximately four weeks later the effects are observed and recorded.

Bromus tectorum [13] = assay: post-emergent herbicidal activity test; settings: 11.2 Kg/Ha; approximately four weeks later
Method: as §4

Canada Thistle [14] = assay: post-emergent herbicidal activity test; settings: 11.2 Kg/Ha; approximately four weeks later
Method: as §4

Cocklebur [15] = assay: post-emergent herbicidal activity test; settings: 11.2 Kg/Ha; approximately four weeks later
Method: as §4

Johnsongrass [16] = assay: post-emergent herbicidal activity test; settings: 11.2 Kg/Ha; approximately four weeks later
Method: as §4

Lambsquarter [17] = assay: post-emergent herbicidal activity test; settings: 11.2 Kg/Ha; approximately four weeks later
Method: as §4

Morningglory [18] = assay: post-emergent herbicidal activity test; settings: 11.2 Kg/Ha; approximately four weeks later
Method: as §4

Nutsedge [19] = assay: post-emergent herbicidal activity test; settings: 11.2 Kg/Ha; approximately four weeks later
Method: as §4

Quackgrass [20] = assay: post-emergent herbicidal activity test; settings: 11.2 Kg/Ha; approximately four weeks later
Method: as §4

Smartweed [21] = assay: post-emergent herbicidal activity test; settings: 11.2 Kg/Ha; approximately four weeks later
Method: as §4

Velvetleaf [22] = assay: post-emergent herbicidal activity test; settings: 11.2 Kg/Ha; approximately four weeks later
Method: as §4
Further: ranges in brackets are in %.

## CCOC(=O)c1cn(C)nc1-c1ccc(OC)cc1 [Example 31]
Barnyard grass [1]
  Pre-Emergent herbicidal rating, K Barnyard grass: 0 (0-24)
Bromus tectorum [2]
  Pre-Emergent herbicidal rating, J Bromus tectorum: 0 (0-24)
Canada Thistle [3]
  Pre-Emergent herbicidal rating, A Canada Thistle: 0 (0-24)
Cocklebur [4]
  Pre-Emergent herbicidal rating, B Cocklebur: 0 (0-24)
Johnsongrass [5]
  Pre-Emergent herbicidal rating, I Johnsongrass: 0 (0-24)
Lambsquarter [6]
  Pre-Emergent herbicidal rating, E Lambsquarter: 0 (0-24)
Morningglory [7]
  Pre-Emergent herbicidal rating, D Morningglory: 0 (0-24)
Nutsedge [8]
  Pre-Emergent herbicidal rating, G Nutsedge: 0 (0-24)
Quackgrass [9]
  Pre-Emergent herbicidal rating, H Quackgrass: 0 (0-24)
Smartweed [10]
  Pre-Emergent herbicidal rating, F Smartweed: 0 (0-24)
Velvetleaf [11]
  Pre-Emergent herbicidal rating, C Velvetleaf: 0 (0-24)
Barnyard grass [12]
  Post-Emergent herbicidal rating, K Barnyard grass: 1 (25-49)
Bromus tectorum [13]
  Post-Emergent herbicidal rating, J Bromus tectorum: 0 (0-24)
Canada Thistle [14]
  Post-Emergent herbicidal rating, A Canada Thistle: 0 (0-24)
Cocklebur [15]
  Post-Emergent herbicidal rating, B Cocklebur: 0 (0-24)
Johnsongrass [16]
  Post-Emergent herbicidal rating, I Johnsongrass: 0 (0-24)
Lambsquarter [17]
  Post-Emergent herbicidal rating, E Lambsquarter: 4 (100)
Morningglory [18]
  Post-Emergent herbicidal rating, D Morningglory: 1 (25-49)
Nutsedge [19]
  Post-Emergent herbicidal rating, G Nutsedge: 0 (0-24)
Quackgrass [20]
  Post-Emergent herbicidal rating, H Quackgrass: 0 (0-24)
Smartweed [21]
  Post-Emergent herbicidal rating, F Smartweed: 4 (100)
Velvetleaf [22]
  Post-Emergent herbicidal rating, C Velvetleaf: 1 (25-49)
